Legend:
adult rats = conditions: cited from earlier work
NMDA receptor = conditions: noncompetitive antagonist; cited from earlier work
[1] = test system: acquired pendular nystagmus; conditions: physical symptom of multiple sclerosis; cited from earlier work
[2] = test system: thermal hyperalgesia and mechanical allodynia; conditions: relatively high doses; without obvious effects on motor reflexes; cited from earlier work
[3] = test system: spastic hind limbs of EAE mice; assay: Spasticity (resistance to hindlimb flexion against a strain gauge) in the EAE model in mice; assay type: in vivo, ABH mice; set-up: Resistance to flexion, Diff of Means: unit not given here
From the text: Induction of EAE. Induction of EAE in animal models is well known in the art. (Raine, Chapter 16, Handbook of Clinical Neurology, vol. 3(47): Demyelinating Diseases, Koetsier, ed., (Elsevier Science Publishers 1985). In the present protocol, 6-8 week ABH mice are immunized with mouse spinal cord homogenate in Freund's complete adjuvant on day 0 & 7. (Baker et al. 1990. J. Neuroimmunol 28:261 O'Neill et al 1992. J. Neuroimmunol. 38:53). Animals will develop relapsing remitting episodes of paralysis at approximately 3-4 week intervals. These will be monitored daily from day 11 onwards to ensure severity levels of paralysis and maintained with humane limits according to the Home Office, Animals (Scientific Procedures) Act […]. Spasticity (stiff hind limbs) after 2-3 relapse episodes (approximately 80-120 days post-induction) will be allowed to develop. Animals with visually spastic limbs will be selected for assessment of the TEST compound.
Resistance to flexion against a strain gauge will be the primary assessment (Baker et al. 2000. Nature), secondary outcome measures will be the presence or absence of spastic tails.
Spasticity. The “stiffness” of spastic limbs is measured using a purpose built strain gauge, and assessed by the resistance force against hindlimb flexion. The limb is extended manually twice prior to measurement of each limb. Limbs showing severe crossing or flexion will not be analyzed. The signal is amplified and digitized using DAS16 card (Amplicon, Brighton UK.) and acquired using Dacquire V10 software and analyzed using Spike 2 software (Baker et al 2000). Left and right hindlimbs are analyzed alternately and typically 5-8 readings per limb were measured at each time point. The mean values will be calculated and converted to forces in Newtons. Data will be analyzed using one-way repeated measures analysis of variance (ANOVA) incorporating Student-Newman-Keuls posthoc test. Differences to baseline will also be compared using Paired t tests.
Administration of compound. The TEST compounds are dissolved in vehicle (to be supplied by the SPONSOR-preferably this will be a saline solution) using doses (to be supplied by the SPONSOR). These will be delivered by the intravenous, intraperitoneal or oral route (to be supplied by the sponsor). Resistance to flexion will be assessed at 10 minutes 30 minutes and 60 minutes following intravenous, intraperitoneal injection, 30, 60 and 90 minutes after oral administration. (Escalating doses (up to three) may be used in the same cohort of animals following wash-out to allow for direct comparison of the dose response).

CC12CC3CC(C)(C1)CC(N)(C3)C2 [Memantine, 1-amino-3,5-dimethyl adamantane]
Formation of hippocampal long-term potentiation (adult rats): enhance the formation of hippocampal long-term potentiation
Spatial memory abilities (adult rats): improve spatial memory abilities
Affinity for the NMDA receptor (NMDA receptor): moderate affinity
Treatment of acquired pendular nystagmus [1]: effective
Thermal hyperalgesia and mechanical allodynia [2]: selectively block thermal hyperalgesia and mechanical allodynia

CC1(C)CC(C)(C)CC(C)(N)C1 [Neramexane, 1-amino-1,3,3,5,5-pentamethylcyclohexane]
Resistance to flexion, Diff of Means ([3]; 3.1 mg/kg, 0 min vs. 10 min, P<0.001): 0.171
Resistance to flexion, Diff of Means ([3]; 3.1 mg/kg, 0 min vs. 30 min, P<0.001): 0.142
Resistance to flexion, Diff of Means ([3]; 3.1 mg/kg, 0 min vs. 60 min, P<0.001): 0.218
Resistance to flexion, Mean ([3]; 3.1 mg/kg, 10 min post-injection, baseline 0 min 0.593, N=13): 0.422 N
Resistance to flexion, Diff of Means ([3]; 3.1 mg/kg, 10 min vs. 60 min, P 0.228, Do Not Test): 0.0474
Resistance to flexion, Mean ([3]; 3.1 mg/kg, 30 min post-injection, baseline 0 min 0.593, N=13): 0.451 N
Resistance to flexion, Diff of Means ([3]; 3.1 mg/kg, 30 min vs. 10 min, P 0.453, Do Not Test): 0.0293
Resistance to flexion, Diff of Means ([3]; 3.1 mg/kg, 30 min vs. 60 min, P 0.130, not significant): 0.0767
Resistance to flexion, Mean ([3]; 3.1 mg/kg, 60 min post-injection, baseline 0 min 0.593, N=13): 0.374 N
Resistance to flexion, Diff of Means ([3]; 6.2 mg/kg, 0 min vs. 10 min, P 0.999, not significant): 0.0000691
Resistance to flexion, Diff of Means ([3]; 6.2 mg/kg, 0 min vs. 30 min, P 0.013): 0.117
Resistance to flexion, Diff of Means ([3]; 6.2 mg/kg, 0 min vs. 60 min, P<0.001): 0.172
Resistance to flexion, Mean ([3]; 6.2 mg/kg, 10 min post-injection, baseline 0 min 0.567, N=11): 0.567 N
Resistance to flexion, Diff of Means ([3]; 6.2 mg/kg, 10 min vs. 30 min, P 0.005): 0.117
Resistance to flexion, Diff of Means ([3]; 6.2 mg/kg, 10 min vs. 60 min, P<0.001): 0.172
Resistance to flexion, Mean ([3]; 6.2 mg/kg, 30 min post-injection, baseline 0 min 0.567, N=11): 0.450 N
Resistance to flexion, Diff of Means ([3]; 6.2 mg/kg, 30 min vs. 60 min, P 0.162, not significant): 0.0549
Resistance to flexion, Mean ([3]; 6.2 mg/kg, 60 min post-injection, baseline 0 min 0.567, N=11): 0.395 N
Resistance to flexion, Diff of Means ([3]; 12.3 mg/kg, 0 min vs. 10 min, P<0.001): 0.114
Resistance to flexion, Diff of Means ([3]; 12.3 mg/kg, 0 min vs. 30 min, P<0.001): 0.103
Resistance to flexion, Diff of Means ([3]; 12.3 mg/kg, 0 min vs. 60 min, P<0.001): 0.189
Resistance to flexion, Mean ([3]; 12.3 mg/kg, 10 min post-injection, baseline 0 min 0.453, N=14): 0.339 N
Resistance to flexion, Diff of Means ([3]; 12.3 mg/kg, 10 min vs. 60 min, P 0.007): 0.0757
Resistance to flexion, Mean ([3]; 12.3 mg/kg, 30 min post-injection, baseline 0 min 0.453, N=14): 0.350 N
Resistance to flexion, Diff of Means ([3]; 12.3 mg/kg, 30 min vs. 10 min, P 0.693, not significant): 0.0106
Resistance to flexion, Diff of Means ([3]; 12.3 mg/kg, 30 min vs. 60 min, P 0.007): 0.0863
Resistance to flexion, Mean ([3]; 12.3 mg/kg, 60 min post-injection, baseline 0 min 0.453, N=14): 0.263 N
Level of hind limb spasticity ([3]; all 3 doses (3.1, 6.2, 12.3 mg/kg), affected EAE mice): reduced the level of hind limb spasticity
Affinity for the NMDA receptor (NMDA receptor): moderate affinity
Thermal hyperalgesia and mechanical allodynia [2]: selectively block thermal hyperalgesia and mechanical allodynia
